This note sets out measurements from patent US20200190087A1 (priority 2016, published 2020).

Some results are limits rather than exact numbers.

One experiment addresses T1, human μ-opioid receptor (Homo sapiens, UniProt P35372).
T1 construct: expressed in transfected cells; host or cells: CHO-K1
Kind of experiment: Human μ-opioid receptor radioligand assay ([3H]-DAMGO). Type of experiment: binding. As to conditions: transfected CHO-K1 cell membranes, 1 nM [3H]-DAMGO, binding expressed as Ki; read-out: Mu binding activity. How it is done:
Human μ-Opioid Receptor Radioligand Assay
To investigate binding properties of test compounds to human μ-opioid receptor, transfected CHO-K1 cell membranes and [^3H]-DAMGO (Perkin Elmer, ES-542-C), as the radioligand, were used. The assay was carried out with 20 μg of membrane suspension, 1 nM of [^3H]-DAMGO in either absence or presence of either buffer or 10 μM Naloxone for total and non-specific binding, respectively. Binding buffer contained Tris-HCl 50 mM, MgCl2 5 mM at pH 7.4. Plates were incubated at 27° C. for 60 minutes. After the incubation period, the reaction mix was then transferred to MultiScreen HTS, FC plates (Millipore), filtered and plates were washed 3 times with ice-cold 10 mM Tris-HCL (pH 7.4). Filters were dried and counted at approximately 40% efficiency in a MicroBeta scintillation counter (Perkin-Elmer) using EcoScint liquid scintillation cocktail. Preferably, transfected CHO-K1 cell membranes (20 μg) were incubated with 1 nM of [^3H]-DAMGO in assay buffer containing Tris-HCl 50 mM, MgCl2 5 mM at pH 7.4. NBS (non-specific binding) was measured by adding 10 μM Naloxone. The binding of the test compound was measured at five different concentrations. Plates were incubated at 27° C. for 60 minutes. After the incubation period, the reaction mix was then transferred to MultiScreen HTS, FC plates (Millipore), filtered and plates were washed 3 times with ice-cold 10 mM Tris-HCL (pH 7.4). Filters were dried and counted at approximately 40% efficiency in a MicroBeta scintillation counter (Perkin-Elmer) using EcoScint liquid scintillation cocktail.

For experiment [1], the target named is Human α2δ-1 subunit of Cav2.2 calcium channel (Homo sapiens, UniProt P54289). Kind of experiment: Human α2δ-1 subunit of Cav2.2 calcium channel assay ([3H]-Gabapentin binding). Particulars: human α2δ-1 enriched membranes, 15 nM [3H]-Gabapentin, binding expressed as Ki; read-out: α2δ1 binding activity. How it is done: Human α2δ-1 Subunit of Cav2.2 Calcium Channel Assay
Human α2δ-1 enriched membranes (2.5 μg) were incubated with 15 nM of radiolabeled [3H]-Gabapentin in assay buffer containing Hepes-KOH 10 mM, pH 7.4. NSB (non specific binding) was measured by adding 10 μM pregabalin. The binding of the test compound was measured at five different concentrations. After 60 min incubation at 27° C., binding reaction was terminated by filtering through Multiscreen GF/C (Millipore) presoaked in 0.5% polyethyleneimine in Vacuum Manifold Station, followed by 3 washes with ice-cold filtration buffer containing 50 mM Tris-HCl, pH 7.4. Filter plates were dried at 60° C. for 1 hour and 30 μl of scintillation cocktail were added to each well before radioactivity reading. Readings were performed in a Trilux 1450 Microbeta radioactive counter (Perkin Elmer).

T1 sequence (P35372 whole entry): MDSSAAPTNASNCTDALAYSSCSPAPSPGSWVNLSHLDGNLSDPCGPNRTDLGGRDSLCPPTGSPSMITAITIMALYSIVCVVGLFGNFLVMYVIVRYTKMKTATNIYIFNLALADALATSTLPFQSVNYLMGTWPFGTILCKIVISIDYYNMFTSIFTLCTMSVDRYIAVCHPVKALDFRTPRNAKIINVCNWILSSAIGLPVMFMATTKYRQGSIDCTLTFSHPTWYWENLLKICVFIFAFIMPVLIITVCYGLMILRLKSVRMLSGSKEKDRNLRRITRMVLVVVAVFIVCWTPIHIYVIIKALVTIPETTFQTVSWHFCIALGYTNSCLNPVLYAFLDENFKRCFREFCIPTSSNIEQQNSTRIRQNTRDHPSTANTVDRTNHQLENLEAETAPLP
Sequence of Human α2δ-1 subunit of Cav2.2 calcium channel (P54289 25-1103): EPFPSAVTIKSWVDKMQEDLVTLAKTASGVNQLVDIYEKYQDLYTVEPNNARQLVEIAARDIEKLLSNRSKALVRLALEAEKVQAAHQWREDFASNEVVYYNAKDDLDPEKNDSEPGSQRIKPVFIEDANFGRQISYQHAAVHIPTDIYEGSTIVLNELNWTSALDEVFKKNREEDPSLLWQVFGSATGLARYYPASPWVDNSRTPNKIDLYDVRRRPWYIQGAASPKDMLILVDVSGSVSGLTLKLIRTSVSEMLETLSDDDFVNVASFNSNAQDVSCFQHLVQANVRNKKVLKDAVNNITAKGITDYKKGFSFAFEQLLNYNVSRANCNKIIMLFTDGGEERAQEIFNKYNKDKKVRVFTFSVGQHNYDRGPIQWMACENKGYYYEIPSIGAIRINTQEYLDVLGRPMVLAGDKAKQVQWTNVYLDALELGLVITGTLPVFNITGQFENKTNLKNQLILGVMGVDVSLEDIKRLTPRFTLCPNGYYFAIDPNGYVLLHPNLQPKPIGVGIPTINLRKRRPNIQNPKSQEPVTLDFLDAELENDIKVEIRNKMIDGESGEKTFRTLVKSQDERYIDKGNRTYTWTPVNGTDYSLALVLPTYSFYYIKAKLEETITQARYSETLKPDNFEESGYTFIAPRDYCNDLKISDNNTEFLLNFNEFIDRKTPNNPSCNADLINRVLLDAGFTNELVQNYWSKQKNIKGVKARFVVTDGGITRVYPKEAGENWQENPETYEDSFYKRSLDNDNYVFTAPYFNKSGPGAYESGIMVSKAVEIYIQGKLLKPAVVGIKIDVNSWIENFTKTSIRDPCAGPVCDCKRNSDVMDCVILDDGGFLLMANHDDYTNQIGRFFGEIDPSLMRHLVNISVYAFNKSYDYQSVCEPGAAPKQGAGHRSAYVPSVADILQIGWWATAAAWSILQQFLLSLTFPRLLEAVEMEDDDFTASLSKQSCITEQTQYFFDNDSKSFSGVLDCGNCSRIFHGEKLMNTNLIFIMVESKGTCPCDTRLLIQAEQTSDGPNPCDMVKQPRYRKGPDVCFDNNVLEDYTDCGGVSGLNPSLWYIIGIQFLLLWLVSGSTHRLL

Take `CCOc1ccc(-n2nc3c(C4CCN(Cc5ncccc5OC)CC4)nnc(C)c3c2C)c(F)c1` [Ex 50, 2-(4-Ethoxy-2-fluorophenyl)-7-(1-((3-methoxypyridin-2-yl)methyl)piperidin-4-yl)-3,4-dimethyl-2H-pyrazolo[3,4-d]pyridazine]: the Ki on human μ-opioid receptor was > 500 nM; in experiment [1], 500 to 3000 nM.

For `CCOc1ccc(-n2nc3c(C4CCN(Cc5ncccc5Cl)CC4)nnc(C)c3c2C)c(F)c1` [Ex 51, 7-(1-((3-Chloropyridin-2-yl)methyl)piperidin-4-yl)-2-(4-ethoxy-2-fluorophenyl)-3,4-dimethyl-2H-pyrazolo[3,4-d]pyridazine], the Ki was > 500 nM on human μ-opioid receptor and 500 to 3000 nM in experiment [1].

Consider `CCOc1ccc(-n2nc3c(C4CCN(Cc5cc(C(F)(F)F)ccn5)CC4)nnc(C)c3c2C)c(F)c1` [Ex 52, 2-(4-Ethoxy-2-fluorophenyl)-3,4-dimethyl-7-(1-((4-(trifluoromethyl)pyridin-2-yl)methyl)piperidin-4-yl)-2H-pyrazolo[3,4-d]pyridazine], for which the Ki is > 500 nM on human μ-opioid receptor and 3000 to 5000 nM in experiment [1].

For `CCOc1ccc(-n2nc3c(C4CCN(Cc5ccc(Cl)cn5)CC4)nnc(C)c3c2C)c(F)c1` [Ex 53, 7-(1-((5-Chloropyridin-2-yl)methyl)piperidin-4-yl)-2-(4-ethoxy-2-fluorophenyl)-3,4-dimethyl-2H-pyrazolo[3,4-d]pyridazine], the values for the Ki (on human μ-opioid receptor; in experiment [1]) were > 500 nM and 500 to 3000 nM, respectively.

For the molecule `CCOc1ccc(-n2nc3c(C4CCN(Cc5ccc(O)cn5)CC4)nnc(C)c3c2C)c(F)c1` [Ex 54, 6-((4-(2-(4-Ethoxy-2-fluorophenyl)-3,4-dimethyl-2H-pyrazolo[3,4-d]pyridazin-7-yl)piperidin-1-yl)methyl)pyridin-3-ol], the Ki was > 500 nM on human μ-opioid receptor and 500 to 3000 nM in experiment [1].

For `CCOc1ccc(-n2nc3c(C4CCN(Cc5ccc(F)cn5)CC4)nnc(C)c3c2C)c(F)c1` [Ex 55, 2-(4-Ethoxy-2-fluorophenyl)-7-(1-((5-fluoropyridin-2-yl)methyl)piperidin-4-yl)-3,4-dimethyl-2H-pyrazolo[3,4-d]pyridazine], the Ki at human μ-opioid receptor was > 500 nM; in experiment [1] it was 500 to 3000 nM.

Consider `CCOc1ccc(-n2nc3c(C4CCN(Cc5ccc(C(F)(F)F)cn5)CC4)nnc(C)c3c2C)c(F)c1` [Ex 56, 2-(4-Ethoxy-2-fluorophenyl)-3,4-dimethyl-7-(1-((5-(trifluoromethyl)pyridin-2-yl)methyl)piperidin-4-yl)-2H-pyrazolo[3,4-d]pyridazine], for which the Ki on human μ-opioid receptor is > 500 nM; in experiment [1], 500 to 3000 nM.

With `CCOc1ccc(-n2nc3c(C4CCN(CCc5ccncc5)CC4)nnc(C)c3c2C)c(F)c1` [Ex 57, 2-(4-Ethoxy-2-fluorophenyl)-3,4-dimethyl-7-(1-(2-(pyridin-4-yl)ethyl)piperidin-4-yl)-2H-pyrazolo[3,4-d]pyridazine], the Ki on human μ-opioid receptor is > 500 nM; in experiment [1], 500 to 3000 nM.

As to `CCOc1ccc(-n2nc3c(C4CCN(CC(O)c5ccccc5)CC4)nnc(C)c3c2C)c(F)c1` (centres unmarked) [Ex 58, 2-(4-(2-(4-Ethoxy-2-fluorophenyl)-3,4-dimethyl-2H-pyrazolo[3,4-d]pyridazin-7-yl)piperidin-1-yl)-1-phenylethan-1-ol], the Ki is > 500 nM at human μ-opioid receptor and 500 to 3000 nM in experiment [1].

Regarding `CCOc1ccc(-n2nc3c(C#N)nnc(C)c3c2C)c(F)c1` [Ex 59, 2-(4-Ethoxy-2-fluorophenyl)-3,4-dimethyl-2H-pyrazolo[3,4-d]pyridazine-7-carbonitrile], the Ki is > 500 nM on human μ-opioid receptor and ≥ 5000 nM in experiment [1].

As to `CCOc1ccc(-n2nc3c(CN4CCC(c5cccc(O)c5)CC4)nnc(C)c3c2C)c(F)c1` [Ex 60, 3-(1-((2-(4-Ethoxy-2-fluorophenyl)-3,4-dimethyl-2H-pyrazolo[3,4-d]pyridazin-7-yl)methyl)piperidin-4-yl)phenol], the values for the Ki (on human μ-opioid receptor; in experiment [1]) were > 500 nM and 500 to 3000 nM, respectively.

Turning to `CCOc1ccc(-n2nc3c(C(C#N)C(=O)OC(C)(C)C)nnc(C)c3c2C)c(F)c1` (centres unmarked) [Ex 61, tert-Butyl 2-cyano-2-(2-(4-ethoxy-2-fluorophenyl)-3,4-dimethyl-2H-pyrazolo[3,4-d]pyridazin-7-yl)acetate], the Ki on human μ-opioid receptor is > 500 nM; in experiment [1], 500 to 3000 nM.

As for `CCOc1ccc(-n2nc3c(CC#N)nnc(C)c3c2C)c(F)c1` [Ex 62, 2-(2-(4-Ethoxy-2-fluorophenyl)-3,4-dimethyl-2H-pyrazolo[3,4-d]pyridazin-7-yl)acetonitrile], the Ki is > 500 nM on human μ-opioid receptor and 500 to 3000 nM in experiment [1].

`CCOc1ccc(-n2nc3c(CCNC(=O)OC(C)(C)C)nnc(C)c3c2C)c(F)c1` [Ex 63, tert-Butyl (2-(2-(4-ethoxy-2-fluorophenyl)-3,4-dimethyl-2H-pyrazolo[3,4-d]pyridazin-7-yl)ethyl)carbamate]: the values for the Ki (at human μ-opioid receptor; in experiment [1]) were > 500 nM and ≥ 5000 nM, respectively.

Turning to `CCOc1ccc(-n2nc3c(C(C#N)(Cc4ccccc4)C(=O)OC(C)(C)C)nnc(C)c3c2C)c(F)c1` (centres unmarked) [Ex 64, tert-Butyl 2-cyano-2-(2-(4-ethoxy-2-fluorophenyl)-3,4-dimethyl-2H-pyrazolo[3,4-d]pyridazin-7-yl)-3-phenylpropanoate], the values for the Ki (at human μ-opioid receptor; in experiment [1]) were > 500 nM and ≥ 5000 nM, respectively.

Take `CCOc1ccc(-n2nc3c(C(C#N)Cc4ccccc4)nnc(C)c3c2C)c(F)c1` (centres unmarked) [Ex 65, 2-(2-(4-Ethoxy-2-fluorophenyl)-3,4-dimethyl-2H-pyrazolo[3,4-d]pyridazin-7-yl)-3-phenylpropanenitrile]: the results for the Ki (at human μ-opioid receptor; in experiment [1]) were > 500 nM and 500 to 3000 nM, respectively.
